From US20250011318A1 (ARCUS BIOSCIENCES, INC., priority 2023, published 2025) come the findings set out here.

Assay [1] has as its system Jurkat cells. The experiment in a line: IL-2 secretion assay in CD3/CD28-activated Jurkat cells (AlphaLISA). The assay is classed as cell-based, human. Particulars: Homo sapiens, CD3/CD28 T Cell Activator, 24 h, IL-2 AlphaLISA. Summed up:
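IL-2 release quantified by AlphaLISA in supernatants after 24 h CD3/CD28 activation at 37° C. Compounds, 10 μM to 300 pM final in 1:2 steps, were added to 50,000 Jurkat cells/well 1 h before activation; 4-parameter fit gave EC50.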
A general note: In Alpha technology, singlet oxygen from a donor bead excites a nearby acceptor bead.

In assay [2] the target is T1, Cbl-b (Homo sapiens, UniProt Q13191).
T1 construct: biotin (biotinylated)
T1 sequence (Q13191 whole entry, species assumed): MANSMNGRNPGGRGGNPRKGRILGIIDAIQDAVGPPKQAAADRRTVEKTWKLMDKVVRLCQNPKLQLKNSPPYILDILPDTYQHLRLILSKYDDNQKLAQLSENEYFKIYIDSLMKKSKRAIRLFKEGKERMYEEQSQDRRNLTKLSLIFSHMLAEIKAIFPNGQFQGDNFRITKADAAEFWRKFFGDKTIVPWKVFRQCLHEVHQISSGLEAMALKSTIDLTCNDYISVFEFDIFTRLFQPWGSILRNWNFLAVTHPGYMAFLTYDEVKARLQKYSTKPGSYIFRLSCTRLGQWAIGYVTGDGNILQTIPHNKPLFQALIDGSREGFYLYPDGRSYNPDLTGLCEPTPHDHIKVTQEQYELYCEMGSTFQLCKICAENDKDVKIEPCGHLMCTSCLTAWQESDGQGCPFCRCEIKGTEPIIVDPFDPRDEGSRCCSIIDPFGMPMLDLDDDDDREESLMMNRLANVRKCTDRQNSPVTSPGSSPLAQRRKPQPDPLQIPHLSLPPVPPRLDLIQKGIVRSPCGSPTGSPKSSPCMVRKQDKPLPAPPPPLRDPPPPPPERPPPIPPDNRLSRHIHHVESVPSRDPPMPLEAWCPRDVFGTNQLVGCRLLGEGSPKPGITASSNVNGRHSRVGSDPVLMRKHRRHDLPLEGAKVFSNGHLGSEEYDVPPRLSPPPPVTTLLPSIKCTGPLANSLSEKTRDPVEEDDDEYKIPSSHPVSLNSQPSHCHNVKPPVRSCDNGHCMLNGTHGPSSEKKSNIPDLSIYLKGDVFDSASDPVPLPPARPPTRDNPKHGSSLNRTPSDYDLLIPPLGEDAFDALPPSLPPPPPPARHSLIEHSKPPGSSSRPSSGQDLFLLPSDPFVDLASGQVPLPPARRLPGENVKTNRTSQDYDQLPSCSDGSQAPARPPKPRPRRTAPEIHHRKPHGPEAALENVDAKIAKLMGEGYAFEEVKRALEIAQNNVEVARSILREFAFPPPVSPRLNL
Put plainly: Cbl-b probe displacement HTRF binding assay. Particulars: 0.4 nM biotinylated Cbl-b, 150 nM BODIPY probe. Summed up: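 Probe-displacement HTRF in Hepes/NaCl/Triton/TCEP/BSA buffer at room temperature: compound dilutions (to 10 μM) incubated 60 min with 0.4 nM biotin-Cbl-b, 150 nM BODIPY probe added for 15 min, Tb-streptavidin read. Signal normalised to DMSO and no-protein controls; IC50 from four-parameter curve.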
In general terms: Time-resolved FRET reads energy transfer from a long-lived donor to a nearby acceptor.

Usually EC50 stands for the midpoint of the concentration-response curve. By IC50 is commonly meant the concentration at which inhibition is half-maximal. A low value points to inhibition by little substance.

As for `C[C@@H]1CN(Cc2cc3c(C4CC4)cn(-c4cc(-c5ccc(F)cc5-c5nccn5C)cc(C#N)n4)c(=O)c3[nH]2)CCO1` [Example 63, 6-(2-{[(R)-2-methyl-4-morpholinyl]methyl}-4-cyclopropyl-7-oxo-1,6-dihydro-1,6-diaza-6-indenyl)-4-[4-fluoro-2-(1-methyl-2-imidazolyl)phenyl]-2-pyridinecarbonitrile], the EC50 in assay [1] fell in the range of 100 to 1000 nM. Further, the IC50 in assay [2] is less than 100 nM.
Consider `Cn1cnnc1-c1cc(F)ccc1-c1cc(C2CC2)nc(-n2cc(C(F)(F)F)c3nc(C4CCC4)[nH]c3c2=O)c1` [Example 40, 2-Cyclobutyl-5-[6-cyclopropyl-4-[4-fluoro-2-(4-methyl-1,2,4-triazol-3-yl)phenyl]pyridin-2-yl]-7-(trifluoromethyl)-3H-imidazo[4,5-c]pyridin-4-one], for which the 50% effective concentration (EC50) in assay [1] is less than 100 nM. Also, the concentration for half-maximal inhibition (IC50) in assay [2] is less than 100 nM.
For the compound `COC1CN(Cc2cc3ncn(-c4cc(-c5ccc(F)cc5-c5nc(C#N)cn5C)cc(C5CC5)n4)c(=O)c3[nH]2)C1` [Example 109, 2-[2-(6-cyclopropyl-2-{2-[(3-methoxy-1-azetidinyl)methyl]-7-oxo-1,6-dihydro-1,4,6-triaza-6-indenyl}-4-pyridyl)-5-fluorophenyl]-1-methyl-4-imidazolecarbonitrile], the EC50 in assay [1] fell in the range of 100 to 1000 nM. This compound also displayed an IC50 in assay [2] of less than 100 nM.
The like results for `C[C@H]1CCCN(Cc2cc3c(C4CC4)cn(-c4cc(-c5ccc(F)cc5-c5cncn5C)cc(C5CC5)n4)c(=O)c3[nH]2)C1` [Example 24, 2-{[(S)-3-Methyl-1-piperidyl]methyl}-4-cyclopropyl-6-{6-cyclopropyl-4-[4-fluoro-2-(1-methyl-5-imidazolyl)phenyl]-2-pyridyl}-1,6-dihydro-1,6-diaza-7-indenone] were, in that order, 1000 to 5000 nM and 100 to 1000 nM.
The like results for `Cn1cnnc1-c1cc(F)ccc1-c1cc(C2CC2)nc(-n2cc(C(F)(F)F)c3c(C#N)n[nH]c3c2=O)c1` [Example 26, 6-{6-cyclopropyl-4-[4-fluoro-2-(4-methyl-4H-1,2,4-triazol-3-yl)phenyl]-2-pyridyl}-7-oxo-4-(trifluoromethyl)-1,6-dihydro-1,2,6-triaza-3-indenecarbonitrile] were, in that order, 1000 to 5000 nM and less than 100 nM.
On the same counts, the results for `COCCCc1nc2c(C(F)(F)F)cn(-c3cc(-c4ccc(F)cc4-c4nncn4C)cc(C4CC4)n3)c(=O)c2[nH]1` [Example 41, 5-{6-Cyclopropyl-4-[4-fluoro-2-(4-methyl-4H-1,2,4-triazol-3-yl)phenyl]-2-pyridyl}-2-(3-methoxypropyl)-7-(trifluoromethyl)-3,5-dihydro-1,3,5-triaza-4-indenone] are less than 100 nM and less than 100 nM.
Take `Cn1ccnc1-c1cc(F)ccc1-c1cc(C2CC2)nc(-n2cc(C3CC3)c3cc(CN4C[C@@H]5CC[C@H]4C5)[nH]c3c2=O)c1` [Example 56, 2-({(1S,4R)-2-azabicyclo[2.2.1]hept-2-yl}methyl)-4-cyclopropyl-6-{6-cyclopropyl-4-[4-fluoro-2-(1-methyl-2-imidazolyl)phenyl]-2-pyridyl}-1,6-dihydro-1,6-diaza-7-indenone]: the EC50 in assay [1] lay within 100 to 1000 nM. In assay [2], this compound came in with an IC50 of less than 100 nM.
For the compound `Cn1ccnc1-c1cc(F)ccc1-c1cc(C2CC2)nc(-n2cc(C3CC3)c3cc(CN[C@@H]4CCCOC4)[nH]c3c2=O)c1` [Example 57, 2-{[(R)-tetrahydro-2H-pyran-3-ylamino]methyl}-4-cyclopropyl-6-{6-cyclopropyl-4-[4-fluoro-2-(1-methyl-2-imidazolyl)phenyl]-2-pyridyl}-1,6-dihydro-1,6-diaza-7-indenone], in assay [1], the EC50 was less than 100 nM. Moreover, the half-maximal inhibitory concentration (IC50) in assay [2] was less than 100 nM.
Consider `COCCNCc1cc2ncn(-c3cc(-c4ccc(F)cc4-n4nccc4C(F)(F)F)cc(C4CC4)n3)c(=O)c2[nH]1` [Example 104, 3-[6-cyclopropyl-4-[4-fluoro-2-[5-(trifluoromethyl)pyrazol-1-yl]phenyl]pyridin-2-yl]-6-[(2-methoxyethylamino)methyl]-5H-pyrrolo[3,2-d]pyrimidin-4-one], for which the half-maximal effective concentration (EC50) in assay [1] was 100 to 1000 nM. Further, in assay [2], the IC50 was less than 100 nM.
In assay [1], `C[C@@H]1CN(Cc2cc3c(C4CC4)cn(-c4cc(-c5cc(F)c(F)cc5-c5nccn5C)cc(C5CC5)n4)c(=O)c3[nH]2)CCO1` [Example 66, 2-{[(R)-2-methyl-4-morpholinyl]methyl}-4-cyclopropyl-6-{6-cyclopropyl-4-[4,5-difluoro-2-(1-methyl-2-imidazolyl)phenyl]-2-pyridyl}-1,6-dihydro-1,6-diaza-7-indenone] yielded a concentration giving a half-maximal response (EC50) of 100 to 1000 nM. Also, the half-maximal inhibitory concentration (IC50) in assay [2] was less than 100 nM.
On the same counts, the results for `C[C@H]1CN(Cc2cc3c(C#N)cn(-c4cc(-c5c(F)cc(F)cc5-c5nccn5C)cc(C5CC5)n4)c(=O)c3[nH]2)CCCO1` [Example 88, 2-{1[(S)-2-methyl-1,4-oxazepan-4-yl]methyl}-6-{6-cyclopropyl-4-[4,6-difluoro-2-(1-methyl-2-imidazolyl)phenyl]-2-pyridyl}-7-oxo-1,6-dihydro-1,6-diaza-4-indenecarbonitrile] are less than 100 nM and less than 100 nM.
The like results for `COCCNC(c1cc2ncn(-c3cc(-c4ccc(F)cc4-c4nncn4C)cc(C4CC4)n3)c(=O)c2[nH]1)C(F)(F)F` (stereo not shown) [Example 36, 6-{6-cyclopropyl-4-[4-fluoro-2-(4-methyl-4H-1,2,4-triazol-3-yl)phenyl]-2-pyridyl}-2-[2,2,2-trifluoro-1-(2-methoxyethylamino)ethyl]-1,6-dihydro-1,4,6-triaza-7-indenone] were, in that order, 100 to 1000 nM and less than 100 nM.
With `Cc1c[nH]nc1-c1cc(F)ccc1-c1cccc(-n2cc(C3CC3)c3cc(CN4CCC[C@H](C)C4)[nH]c3c2=O)c1` [Example 21, 4-cyclopropyl-6-[3-[4-fluoro-2-(4-methyl-1H-pyrazol-3-yl)phenyl]phenyl]-2-[[(3S)-3-methylpiperidin-1-yl]methyl]-1H-pyrrolo[2,3-c]pyridin-7-one], in assay [1], the concentration for a half-maximal effect (EC50) lay within 100 to 1000 nM. In assay [2], this compound gave an IC50 of less than 100 nM.
The like results for `Cc1cccc(C(N)c2cc3c(C#N)cn(-c4cc(-c5ccc(F)cc5-c5nncn5C)cc(C5CC5)n4)c(=O)c3[nH]2)n1` (stereo not shown) [Example 95, 2-[amino(6-methyl-2-pyridyl)methyl]-6-{6-cyclopropyl-4-[4-fluoro-2-(4-methyl-4H-1,2,4-triazol-3-yl)phenyl]-2-pyridyl}-7-oxo-1,6-dihydro-1,6-diaza-4-indenecarbonitrile] were, in that order, 100 to 1000 nM and less than 100 nM.
As for `Cn1cnnc1-c1cc(F)ccc1-c1cc(C2CC2)nc(-n2cc(C#N)c3cc(CC4(O)CCCCC4)[nH]c3c2=O)c1` [Example 96, 6-{6-cyclopropyl-4-[4-fluoro-2-(4-methyl-4H-1,2,4-triazol-3-yl)phenyl]-2-pyridyl}-2-[(1-hydroxycyclohexyl)methyl]-7-oxo-1,6-dihydro-1,6-diaza-4-indenecarbonitrile], the EC50 in assay [1] is less than 100 nM. In assay [2], this compound displayed a concentration for half-maximal inhibition (IC50) of less than 100 nM.
In assay [1], `Cn1cc(C(F)(F)F)nc1-c1cc(C#N)ccc1-c1cc(C2CC2)nc(-n2cc(C3CC3)c3cc(CNC4(C)CCC4)[nH]c3c2=O)c1` [Example 67, 4-(6-cyclopropyl-2-{4-cyclopropyl-2-[(1-methylcyclobutylamino)methyl]-7-oxo-1,6-dihydro-1,6-diaza-6-indenyl}-4-pyridyl)-3-[1-methyl-4-(trifluoromethyl)-2-imidazolyl]benzonitrile] returned an EC50 of 100 to 1000 nM. In addition, the IC50 in assay [2] is less than 100 nM.
On the same counts, the results for `COC[C@H](C)NCc1cc2ncn(-c3cc(-c4ccc(F)cc4-c4nc(C#N)cn4C)cc(C4CC4)n3)c(=O)c2[nH]1` [Example 111, 2-[2-[2-cyclopropyl-6-[6-[[[(2S)-1-methoxypropan-2-yl]amino]methyl]-4-oxo-5H-pyrrolo[3,2-d]pyrimidin-3-yl]pyridin-4-yl]-5-fluorophenyl]-1-methylimidazole-4-carbonitrile] are less than 100 nM and less than 100 nM.
The like results for `Cn1cc(C#N)nc1-c1cc(F)ccc1-c1cc(C2CC2)nc(-n2cc(C(F)(F)F)c3nc([C@@H]4CCOC4)[nH]c3c2=O)c1` [Example 47, 2-[2-(2-{2-[(S)-Tetrahydro-3-furyl]-4-oxo-7-(trifluoromethyl)-3,5-dihydro-1,3,5-triaza-5-indenyl}-6-cyclopropyl-4-pyridyl)-5-fluorophenyl]-1-methyl-4-imidazolecarbonitrile] were, in that order, less than 100 nM and less than 100 nM.
As for `CC(c1cc2c(C3CC3)cn(-c3cc(-c4ccc(C#N)cc4-c4nccn4C)cc(C4CC4)n3)c(=O)c2[nH]1)N1CCC[C@H](C)C1` (mixture of isomers) [Example 100, 4-[2-(2-{1-[(S)-3-methyl-1-piperidyl]ethyl}-4-cyclopropyl-7-oxo-1,6-dihydro-1,6-diaza-6-indenyl)-6-cyclopropyl-4-pyridyl]-3-(1-methyl-2-imidazolyl)benzonitrile], the EC50 in assay [1] was less than 100 nM. Further, the IC50 in assay [2] is less than 100 nM.
With `Cc1ocnc1-c1cc(C#N)ccc1-c1cc(C2CC2)nc(-n2cc(C3CC3)c3cc(CNC4(C)CCC4)[nH]c3c2=O)c1` [Example 71, 4-(6-cyclopropyl-2-{4-cyclopropyl-2-[(1-methylcyclobutylamino)methyl]-7-oxo-1,6-dihydro-1,6-diaza-6-indenyl}-4-pyridyl)-3-(5-methyl-1,3-oxazol-4-yl)benzonitrile], the EC50 in assay [1] is less than 100 nM. The IC50 in assay [2] is less than 100 nM.
